Results: patent US9676758B2, “1-heteroaryl-indoline-4-carboxamides as modulators of GPR52 useful for the treatment or prevention of disorders related thereto” (Arena Pharmaceuticals, Inc., priority 2015, dated 2017)

Experiments:
male Sprague-Dawley rats = assay: Catalepsy (vertical grid) in rats; type: in vivo, rat; conditions: Compound 13 5-100 mg/kg P.O., haloperidol 0.1, 0.3, or 1 mg/kg S.C., 45 minutes post-dose
Protocol: Catalepsy is used as a model for detecting extrapyramidal side effects of antipsychotic drugs. […] The rats were removed from home cages 45 minutes later and placed on a vertical stainless steel grid, and the latency to move both forepaws from their starting position was measured for a maximum of 30 seconds. The test was repeated three times consecutively.
Catalepsy is expressed as the average latency to move both forepaws over the three trials. Latency increased in the rats administered haloperidol (see FIG. 27B), but was unchanged in rats administered Compound 13 (see FIG. 27A).

male Sprague Dawley rats = assay: Plasma prolactin levels in rats (ELISA); type: in vivo, rat; conditions: basal prolactin release, haloperidol 0.1 and 1 mg/kg P.O., Compound 13 1, 10, and 100 mg/kg P.O., FIG. 28A
Protocol: Another unwanted side effect of certain antipsychotics is hyperprolactinemia. To examine prolactin levels following the administration of a GPR52 agonist, male Sprague Dawley rats (Harlan Laboratories, San Diego, Calif.) were single-housed, handled, and moved to a private housing room one week prior to testing. Rats were individually handled and sham dosed P.O. for four days prior to testing. For an assessment of haloperidol (0.1 and 1 mg/kg P.O.) and Compound 13 (1, 10, and 100 mg/kg P.O.) on basal prolactin release, rats were dosed with acidic 20% HP-β-cyclodextrin (HBCD) or compound at 3 mL/kg P.O. in their housing room 60 minutes prior to harvest. For interaction studies, rats were dosed with 20% HBCD or Compound 13 (10 mg/kg P.O.) 90 minutes prior to harvest, and additionally with 20% HBCD vehicle or haloperidol (0.3 and 1 mg/kg P.O.) 60 minutes prior to harvest. Rats were individually taken to the harvest room, and trunk blood was collected into 4 mL EDTA tubes following live decapitation. Samples were stored on wet ice until collection was complete, then spun in a cooling centrifuge at 2400 rpm for 20 minutes. Plasma was collected and frozen for subsequent analysis using a Rat Prolactin ELISA kit (ALPCO Diagnostics: Cat#55-PRLRT-E01).
Briefly, frozen plasma was thawed on ice and mixed prior to initiation of the ELISA. Twenty-five microliters of sample plasma along with serially diluted standards (lyophilized purified rat prolactin diluted with rat prolactin calibrator/sample diluent), and calibrator/sample diluent used as a blank were placed in a 96-well plate provided with the ELISA kit. Samples, blank, and standards were measured in duplicate. […] Fifty microliters of stop solution (2M hydrochloric acid) was added to the wells prior to reading on a 96-well plate reader (SpectraMax® 340PC; Molecular Devices, Sunnyvale, Calif.) at […]. The quantity of prolactin in each sample was calculated using a standard curve.

Q: What does the source list for `O=C(CCCN1CCC(O)(c2ccc(Cl)cc2)CC1)c1ccc(F)cc1` [haloperidol, reference compound]?
A: catalepsy: average latency to move both forepaws (male Sprague-Dawley rats): increased; prolactin levels (male Sprague Dawley rats): increased
